Laboratory results published in patent publication US10494364B2, “Cathepsin K inhibitors and application thereof” (SUNSHINE LAKE PHARMA CO., LTD., priority 2015, dated 2019).

What was measured:
Assay type in all cases: biochemical
human cathepsin S = human cathepsin S (Homo sapiens, UniProt P25774); assay: Assay of cathepsin S inhibitory activity in vitro; details: IC50 against human cathepsin S; substrate Z-VVR-AMC 20 μM; 25° C.; read-out: Cat-S
Experimental: Assay Method of Cathepsin S Inhibitory Activity In Vitro
0.25 ng/L was the final concentration of Cathepsin S in the enzyme reaction, and Z-VVR-AMC with the final concentration of 20 μM was added into the reaction system as substrate, in the reaction system the test compound and enzyme had been incubated at 25° C. for 15 min.

human cathepsin L = human cathepsin L (Homo sapiens, UniProt P07711); assay: Assay of cathepsin L inhibitory activity in vitro; details: IC50 against human cathepsin L; substrate Z-Phe-Arg-AMC 10 μM; 25° C.; read-out: Cat-L
Sequence of human cathepsin L (P07711 114-333): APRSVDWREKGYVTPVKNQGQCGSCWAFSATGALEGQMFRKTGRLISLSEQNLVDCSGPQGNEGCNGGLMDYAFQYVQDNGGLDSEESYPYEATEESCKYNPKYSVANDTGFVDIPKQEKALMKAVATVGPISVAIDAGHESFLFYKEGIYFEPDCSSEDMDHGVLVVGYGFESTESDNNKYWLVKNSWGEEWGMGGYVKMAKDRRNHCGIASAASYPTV
Experimental: Assay Method of Cathepsin L Inhibitory Activity In Vitro
0.01 ng/μL was the final concentration of Cathepsin L in the enzyme reaction, and Z-Phe-Arg-AMC with the final concentration of 10 μM was added into the reaction system as substrate, in the reaction system the test compound and enzyme had been incubated at 25° C. for 15 min.

human cathepsin B = human cathepsin B (Homo sapiens, UniProt P07858); assay: Assay of cathepsin B inhibitory activity in vitro; details: IC50 against human cathepsin B; substrate Z-Phe-Arg-AMC 10 μM; 25° C.; read-out: Cat-B
Experimental: Assay Method of Cathepsin B Inhibitory Activity In Vitro
0.01 ng/μL was the final concentration of Cathepsin B in the enzyme reaction, and Z-Phe-Arg-AMC with the final concentration of 10 μM was added into the reaction system as substrate, in the reaction system the test compound and enzyme had been incubated at 25° C. for 15 min.

human cathepsin K = biological target: T1, human cathepsin K (Homo sapiens, UniProt P43235); assay: Assay of cathepsin K inhibitory activity in vitro; details: IC50 against human cathepsin K; substrate Z-Phe-Arg-AMC 10 μM; 25° C.; read-out: Cat-K
T1 sequence (P43235 115-329): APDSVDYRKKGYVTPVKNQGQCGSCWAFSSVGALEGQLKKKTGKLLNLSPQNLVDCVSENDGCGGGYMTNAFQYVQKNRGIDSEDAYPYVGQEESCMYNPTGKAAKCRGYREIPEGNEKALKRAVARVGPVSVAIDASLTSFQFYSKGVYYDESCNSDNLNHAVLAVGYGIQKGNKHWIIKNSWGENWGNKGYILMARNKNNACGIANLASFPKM
Experimental: Assay Method of Cathepsin K Inhibitory Activity In Vitro
Using 45000-fold diluted cathepsin K solution and 10 μM Z-Phe-Arg-AMC as substrate, the test compound and cathepsin K solution were incubated at 25° C. for 15 min in a 15 μL reaction system according to the optimized experimental condition.

Sequence of human cathepsin S (P25774 115-331): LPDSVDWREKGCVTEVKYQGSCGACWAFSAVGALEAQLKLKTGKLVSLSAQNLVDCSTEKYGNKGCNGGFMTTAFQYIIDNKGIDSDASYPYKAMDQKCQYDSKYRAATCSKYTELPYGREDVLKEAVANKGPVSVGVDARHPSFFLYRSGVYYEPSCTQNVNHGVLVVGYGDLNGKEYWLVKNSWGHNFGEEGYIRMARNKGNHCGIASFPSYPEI

SMILES	IC50 (human cathepsin S) [nM]	IC50 (human cathepsin L) [nM]	IC50 (human cathepsin B) [nM]	IC50 (human cathepsin K) [nM]
N#CC1(NC(=O)C2(NC(=O)c3cc4ccc(-c5csc(-n6cncn6)n5)cc4o3)CCC(F)(F)CC2)CC1 [Example 57, 6-(2-(1H-1,2,4-triazol-1-yl)thiazol-4-yl)-N-(1-((1-cyanocyclopropyl)carbamoyl)-4,4-difluorocyclohexyl)benzofuran-2-carboxamide]	416	> 10000	> 10000	1.3
N#CC1(NC(=O)C2(NC(=O)c3cc4ccc(-c5ccc(-n6cncn6)cc5)cc4o3)CCCCCC2)CC1 [Example 61]	> 10000	> 10000	423	1.26
CS(=O)(=O)c1ccc(-c2ccc3cc(C(=O)NC4(C(=O)NC5(C#N)CC5)CCCCC4)oc3c2)cc1 [Example 62]	4000	> 10000	880	1.37
N#CC1(NC(=O)C2(NC(=O)c3cc4ccc(-c5csc(N6CCCC6=O)n5)cc4o3)CCCCC2)CC1 [Example 63]	> 10000	> 10000	1200	1.6
CS(=O)(=O)c1cccc(-c2ccc3cc(C(=O)NC4(C(=O)NC5(C#N)CC5)CCCCC4)oc3c2)c1 [Example 64]	637	> 10000	373	0.88
N#CC1(NC(=O)C2(NC(=O)c3cc4ccc(-c5csc(N6CCNC6=O)n5)cc4o3)CCCCC2)CC1 [Example 65]	> 10000	> 10000	697	1.3
CS(=O)(=O)c1nc(-c2ccc3cc(C(=O)NC4(C(=O)NC5(C#N)CC5)CCCCC4)oc3c2)cs1 [Example 66]	969	> 10000	540	0.81
N#CC1(NC(=O)C2(NC(=O)c3cc4ccc(-c5csc(N6CCS(=O)(=O)CC6)n5)cc4o3)CCCCC2)CC1 [Example 67]	990	> 10000	540	0.64
N#CC1(NC(=O)C2(NC(=O)c3cc4ccc(-c5csc(N6CCOC6=O)n5)cc4o3)CCCCC2)CC1 [Example 68]	4080	> 10000	360	0.79
CS(=O)(=O)c1ccc(-c2ccc3cc(C(=O)NC4(C(=O)NC5(C#N)CC5)CCCC4)oc3c2)cc1 [Example 70]	5060	> 10000	530	8.6
COC1(c2ccc(-c3ccc4cc(C(=O)NC5(C(=O)NC6(C#N)CC6)CCCCC5)oc4c3)cc2)COC1 [Example 71]	> 10000	> 10000	290	2.1
N#CC1(NC(=O)C2(NC(=O)c3cc4ccc(-c5ccc(C6(O)COC6)cc5)cc4o3)CCCCC2)CC1 [Example 72]	> 10000	> 10000	727	0.5
N#CC1(NC(=O)C2(NC(=O)c3cc4ccc(-c5ccc(C6(F)COC6)cc5)cc4o3)CCCCC2)CC1 [Example 73]	> 10000	> 10000	1120	3.04

Second part, the molecule after the results:

IC50 (human cathepsin S) [nM]	IC50 (human cathepsin L) [nM]	IC50 (human cathepsin B) [nM]	IC50 (human cathepsin K) [nM]	SMILES
4100	> 10000	490	1.83	N#CC1(NC(=O)C2(NC(=O)c3cc4ccc(-c5ccc(C6(O)CCOCC6)cc5)cc4o3)CCCCC2)CC1 [Example 75]
340	> 10000	120	0.55	N#CC1(NC(=O)C2(NC(=O)c3cc4ccc(-c5ccc(C6(O)CCS(=O)(=O)CC6)cc5)cc4o3)CCCCC2)CC1 [Example 76]
1050	≥ 10000	178	0.67	N#CC1(NC(=O)C2(NC(=O)c3cc4ccc(-c5ccc(C6(O)COC6)nc5)cc4o3)CCCCC2)CC1 [Example 77]
2070	≥ 10000	282	0.95	N#CC1(NC(=O)C2(NC(=O)c3cc4ccc(-c5csc(C6(O)COC6)n5)cc4o3)CCCCC2)CC1 [Example 78]
740	7100	330	0.72	N#CC1(NC(=O)C2(NC(=O)c3cc4ccc(-c5ccc(C6(O)COC6)cc5)cc4o3)CCCCCC2)CC1 [Example 79]
1600	> 10000	2400	1.34	CS(=O)(=O)c1ccc(-c2ccc3cc(C(=O)NC4(C(=O)NC5(C#N)CC5)CCCCCC4)oc3c2)cc1 [Example 81]
1500	> 10000	200	2.7	CS(=O)(=O)c1ccc(-c2ccc3cc(C(=O)NC4(C(=O)NC5(C#N)CC5)CCCCC4)oc3n2)cc1 [Example 82]
> 10000	> 10000	1600	2.2	N#CC1(NC(=O)C2(NC(=O)c3cc4ccc(-c5ccc(C6(F)CCS(=O)(=O)CC6)cc5)cc4o3)CCCCC2)CC1 [Example 83]
9700	> 10000	860	1.3	N#CC1(NC(=O)C2(NC(=O)c3cc4ccc(-c5ccc(-n6cncn6)cc5)cc4o3)CCCCC2)CC1 [Example 84]
1500	> 10000	2200	1.26	N#CC1(NC(=O)C2(NC(=O)c3cc4ccc(-c5ccc(-n6cn[nH]c6=O)cc5)cc4o3)CCC(F)(F)CC2)CC1 [Example 85]
4700	> 10000	6800	1.1	N#CC1(NC(=O)C2(NC(=O)c3cc4ccc(-c5ccc(C6CCS(=O)(=O)CC6)cc5)cc4o3)CCC(F)(F)CC2)CC1 [Example 86]
2900	> 10000	800	5.4	N#CC1(NC(=O)C2(NC(=O)c3cc4ccc(-c5ccc(N6CCNC6=O)cc5)cc4o3)CCC(F)(F)CC2)CC1 [Example 88]
170	> 10000	1200	1.5	N#CC1(NC(=O)C2(NC(=O)c3cc4ccc(-c5ccc(C(O)C(N)=O)cc5)cc4o3)CCC(F)(F)CC2)CC1 (centres unmarked) [Example 90]
> 10000	> 10000	2500	1.3	N#CC1(NC(=O)C2(NC(=O)c3cc4ccc(-c5ccc6c(c5)OCO6)cc4o3)CCC(F)(F)CC2)CC1 [Example 91]
2300	> 10000	6400	1.4	N#CC1(NC(=O)C2(NC(=O)c3cc4ccc(-c5ccc(C(=O)N6CCOCC6)cc5)cc4o3)CCC(F)(F)CC2)CC1 [Example 92]
> 10000	> 10000	4300	2.96	CC1(COc2ccc(-c3ccc4cc(C(=O)NC5(C(=O)NC6(C#N)CC6)CCC(F)(F)CC5)oc4c3)cc2)COC1 [Example 93]
6500	> 10000	4000	2.4	COc1cc(-c2ccc3cc(C(=O)NC4(C(=O)NC5(C#N)CC5)CCC(F)(F)CC4)oc3c2)ccc1OC(F)F [Example 94]
2150	> 10000	711	0.53	CS(=O)(=O)Nc1ccc(-c2ccc3cc(C(=O)NC4(C(=O)NC5(C#N)CC5)CCC(F)(F)CC4)oc3c2)cc1 [Example 96]
2290	> 10000	355	1.37	COc1cc(-c2ccc3cc(C(=O)NC4(C(=O)NC5(C#N)CC5)CCC(F)(F)CC4)oc3c2)ccc1S(C)(=O)=O [Example 97]
